The text below walks through data of patent US9856262B2, “Analogues of 4H-pyrazolo[1,5-a] benzimidazole compound as PARP inhibitors” (HUBEI BIO-PHARMACEUTICAL INDUSTRIAL TECHNOLOGICAL INSTITUTE …, priority 2014, dated 2018).

One assay addresses T1, PARP-1 (Homo sapiens, UniProt P09874).
T1 construct: purchased
In words: PARP enzymatic assay (HT Universal Colorimetric PARP1 Assay Kit). It counts as biochemical. The following applies: read-out: PARP-1 enzymatic inhibition IC50. How it is done: PARP Enzymatic Assay (Following the Manual of HT Universal Colorimetric PARP1 Assay Kit).
Histone proteins were coated on a 96-well plate and incubated overnight at 4° C. After be washed 3 times with 200 ul PBST solution, the plate was blocked with a blocking solution and incubated for 30 min at room temperature, and then washed with PBST solution 3 times. A compound to be tested was treated and added to the plate. Thereafter, 20 μl of diluted PARP1 (1 nM) or 20 μl of PARP2 (3 nM) solution was added into the reaction system and incubated for 1 or 2 hours. 50 ul of streptavidin-HRP mixture (1:50) was added into the plate and incubated for 30 min at room temperature. The plate was then washed with three times with PBST buffer. 100 μl of (HRP) (Chemiluminescent substrate A and substrate B (1:1)) was added into the plate, and the plate was immediately read on a microplate reader (Envision, PerkinElmer).

The subject of another assay is HCC1937 cells. In words: Cellular PARylation assay. It counts as cell-based. The following applies: Homo sapiens; HCC1937 cells, compound 30 min then 1 mM H2O2 10 min; read-out: cellular PARylation EC50. The method, then:
Cellular PARylation Assay
HCC1937 cells were planted into 96 well plates at 4×10^4 cells/well and incubated at 37° C. in an incubator overnight. After being treated with a test compound for 30 min, cells were then treated with 1 mM H2O2 for 10 min. The cells were washed with 200 ul pre-chilled PBS twice and fixed with 100 ul pre-chilled methanol/acetone (7:3) on ice for 30 min. After being air-dried, the plates were blocked using PBS-Tween blocking solution (0.05%) with dissolved 5% nonfat dry milk for 30 min at room temperature. The cells were incubated with anti-PAR antibody 10H (1:100) at room temperature for 1 hour followed by washing with PBS-Tween20 for 3 times; and then added into a blocking solution including goat anti-mouse fluorescein isothiocyanate (FITC)-coupled secondary antibody and 1 μg/mL DAPI to incubate away from light at room temperature for 1 hour. After being washed with PBS-Tween20 for 3 times, the plate was analyzed with a fluorescence microplate counter (Flexstation III, Molecular Device).

T1 sequence (P09874 whole entry): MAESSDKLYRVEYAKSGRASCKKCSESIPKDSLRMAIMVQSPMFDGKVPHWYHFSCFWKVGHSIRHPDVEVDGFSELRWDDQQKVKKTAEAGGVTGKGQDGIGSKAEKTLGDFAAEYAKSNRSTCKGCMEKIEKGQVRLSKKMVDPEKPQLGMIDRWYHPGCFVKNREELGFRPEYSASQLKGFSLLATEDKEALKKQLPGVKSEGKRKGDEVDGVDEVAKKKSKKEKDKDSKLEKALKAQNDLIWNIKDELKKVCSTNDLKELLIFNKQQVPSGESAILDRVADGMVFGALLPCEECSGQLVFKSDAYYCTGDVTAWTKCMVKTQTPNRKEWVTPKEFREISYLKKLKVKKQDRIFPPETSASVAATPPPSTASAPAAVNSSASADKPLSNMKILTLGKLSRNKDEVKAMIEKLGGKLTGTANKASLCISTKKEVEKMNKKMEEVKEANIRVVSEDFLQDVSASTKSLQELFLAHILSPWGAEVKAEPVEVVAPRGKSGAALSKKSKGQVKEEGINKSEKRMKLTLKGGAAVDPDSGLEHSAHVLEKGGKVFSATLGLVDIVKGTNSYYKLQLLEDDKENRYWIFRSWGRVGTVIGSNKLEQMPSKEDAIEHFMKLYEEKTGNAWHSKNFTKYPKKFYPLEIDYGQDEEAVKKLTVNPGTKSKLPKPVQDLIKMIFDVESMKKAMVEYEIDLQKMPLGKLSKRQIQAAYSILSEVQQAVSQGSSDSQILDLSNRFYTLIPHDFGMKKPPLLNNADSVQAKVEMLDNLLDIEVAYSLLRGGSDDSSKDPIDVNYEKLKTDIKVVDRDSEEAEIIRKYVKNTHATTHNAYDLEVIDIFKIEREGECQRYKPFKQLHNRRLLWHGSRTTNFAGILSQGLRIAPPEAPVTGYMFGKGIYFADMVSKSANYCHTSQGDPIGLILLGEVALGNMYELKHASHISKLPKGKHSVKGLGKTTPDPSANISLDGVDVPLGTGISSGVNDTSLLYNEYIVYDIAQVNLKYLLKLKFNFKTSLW

For `CC1(c2cnn3c2[nH]c2cc(F)cc(C(N)=O)c23)CCN(CCS(C)(=O)=O)CC1` [Example 65, 6-fluoro-3-(4-methyl-1-(2-(methylsulfonyl)ethyl)piperidin-4-yl)-4H-benzo[4,5]imidazo[1,2-b]pyrazole-8-carboxamide], the IC50 (commonly the concentration needed to halve the response being measured) on PARP-1 was in the range of 1 to 100 nM. The EC50 (in general, the concentration needed to bring the measured effect to its halfway point) in the assay on HCC1937 cells fell in the range of 1 to 100 nM.

As for `CC1(c2cnn3c2[nH]c2cc(F)cc(C(N)=O)c23)CCN(CC2CCOCC2)CC1` [Example 66, 6-fluoro-3-(4-methyl-1-((tetrahydro-2H-pyran-4-yl)methyl)piperidin-4-yl)-4H-benzo[4,5]imidazo[1,2-b]pyrazole-8-carboxamide], the concentration for half-maximal inhibition (IC50) at PARP-1 is 1 to 100 nM. Also, in the assay on HCC1937 cells, the half-maximal effective concentration (EC50) is 1 to 100 nM.

As to `CC1(c2cnn3c2[nH]c2cc(F)cc(C(N)=O)c23)CCN(CC2(N)CC2)CC1` [Example 67, 3-(1-((1-aminocyclopropyl)methyl)-4-methylpiperidin-4-yl)-6-fluoro-4H-benzo[4,5]imidazo[1,2-b]pyrazole-8-carboxamide], the IC50 at PARP-1 is 1 to 100 nM. For the same molecule, the EC50 in the assay with HCC1937 cells was 1 to 100 nM.

With `CC1(c2cnn3c2[nH]c2cc(F)cc(C(N)=O)c23)CCN(CC2COC2)CC1` [Example 68, 6-fluoro-3-(4-methyl-1-(oxetan-3-ylmethyl)piperidin-4-yl)-4H-benzo[4,5]imidazo[1,2-b]pyrazole-8-carboxamide], the concentration for half-maximal inhibition (IC50) on PARP-1 fell in the range of 1 to 100 nM. In addition, the EC50 in the assay with HCC1937 cells is 1 to 100 nM.

As for `COCCN1CCC(C)(c2cnn3c2[nH]c2cc(F)cc(C(N)=O)c23)CC1` [Example 69, 6-fluoro-3-(1-(2-methoxyethyl)-4-methylpiperidin-4-yl)-4H-benzo[4,5]imidazo[1,2-b]pyrazole-8-carboxamide], the IC50 on PARP-1 was 1 to 100 nM. For the same molecule, the 50% effective concentration (EC50) with HCC1937 cells lay within 1 to 100 nM.

For `CC1(c2cnn3c2[nH]c2cc(F)cc(C(N)=O)c23)CCN(CC2(O)CC2)CC1` [Example 70, 6-fluoro-3-(1-((1-hydroxycyclopropyl)methyl)-4-methylpiperidin-4-yl)-4H-benzo[4,5]imidazo[1,2-b]pyrazole-8-carboxamide], the half-maximal inhibitory concentration (IC50) on PARP-1 lay in the range of 1 to 100 nM. Also, the EC50 in the assay on HCC1937 cells was 1 to 100 nM.

Consider `CC1(CN2CCC(C)(c3cnn4c3[nH]c3cc(F)cc(C(N)=O)c34)CC2)COC1` [Example 71], for which the IC50 at PARP-1 was 1 to 100 nM. The EC50 in the assay with HCC1937 cells fell in the range of 1 to 100 nM.

As to `COCCCN1CCC(C)(c2cnn3c2[nH]c2cc(F)cc(C(N)=O)c23)CC1` [Example 72, 6-fluoro-3-(1-(3-methoxypropyl)-4-methylpiperidin-4-yl)-4H-benzo[4,5]imidazo[1,2-b]pyrazole-8-carboxamide], at PARP-1, the IC50 was 1 to 100 nM. In the assay with HCC1937 cells, the EC50 lay in the range of 1 to 100 nM.

On to `CC1(c2cnn3c2[nH]c2cc(F)cc(C(N)=O)c23)CCN(CC2(S(C)(=O)=O)CC2)CC1` [Example 73, 6-fluoro-3-(4-methyl-1-((1-(methylsulfonyl)cyclopropyl)methyl)piperidin-4-yl)-4H-benzo[4,5]imidazo[1,2-b]pyrazole-8-carboxamide], for which the half-inhibitory concentration (IC50) on PARP-1 is 1 to 100 nM. In addition, in the assay on HCC1937 cells, the EC50 lay in the range of 1 to 100 nM.

With `CC1(c2cnn3c2[nH]c2cc(F)cc(C(N)=O)c23)CCN(Cc2nccs2)CC1` [Example 74, 6-fluoro-3-(4-methyl-1-(thiazol-2-ylmethyl)piperidin-4-yl)-4H-benzo[4,5]imidazo[1,2-b]pyrazole-8-carboxamide], the IC50 at PARP-1 lay in the range of 1 to 100 nM. In addition, the EC50 with HCC1937 cells is 101 to 1000 nM.

With `CC1(c2cnn3c2[nH]c2cc(F)cc(C(N)=O)c23)CCN(S(C)(=O)=O)CC1` [Example 75, 6-fluoro-3-(4-methyl-1-(methylsulfonyl)piperidin-4-yl)-4H-benzo[4,5]imidazo[1,2-b]pyrazole-8-carboxamide], the IC50 at PARP-1 is 1 to 100 nM. Moreover, in the assay with HCC1937 cells, the EC50 is 101 to 1000 nM.

As for `CC1(c2cnn3c2[nH]c2cc(F)cc(C(N)=O)c23)CCN(C2CC(F)C2)CC1` (stereo not shown) [Example 76, 6-fluoro-3-(1-(3-fluorocyclobutyl)-4-methylpiperidin-4-yl)-4H-benzo[4,5]imidazo[1,2-b]pyrazole-8-carboxamide], the IC50 at PARP-1 is 1 to 100 nM. In the assay on HCC1937 cells, the EC50 lay within 1 to 100 nM.

With `CC1(c2cnn3c2[nH]c2cc(F)cc(C(N)=O)c23)CCN(Cc2cccs2)CC1` [Example 77, 6-fluoro-3-(4-methyl-1-(thiophen-2-ylmethyl)piperidin-4-yl)-4H-benzo[4,5]imidazo[1,2-b]pyrazole-8-carboxamide], the IC50 at PARP-1 is 1 to 100 nM. The EC50 in the assay with HCC1937 cells was in the range of 1 to 100 nM.

For the molecule `CCN1CCC(CN2CCC(C)(c3cnn4c3[nH]c3cc(F)cc(C(N)=O)c34)CC2)CC1` [Example 78, 3-(1-((1-ethylpiperidin-4-yl)methyl)-4-methylpiperidin-4-yl)-6-fluoro-4H-benzo[4,5]imidazo[1,2-b]pyrazole-8-carboxamide], on PARP-1, the IC50 lay in the range of 1 to 100 nM. Besides, the concentration giving a half-maximal response (EC50) with HCC1937 cells lay within 1 to 100 nM.

On to `CN1CC(CN2CCC(C)(c3cnn4c3[nH]c3cc(F)cc(C(N)=O)c34)CC2)C1` [Example 79, 6-fluoro-3-(4-methyl-1-((1-methylazetidin-3-yl)methyl)piperidin-4-yl)-4H-benzo[4,5]imidazo[1,2-b]pyrazole-8-carboxamide], for which the IC50 on PARP-1 lay in the range of 1 to 100 nM. Moreover, the concentration for a half-maximal effect (EC50) in the assay with HCC1937 cells lay within 1 to 100 nM.

`CCOC(=O)C1CC1CN1CCC(C)(c2cnn3c2[nH]c2cc(F)cc(C(N)=O)c23)CC1` (stereo not shown) [Example 80, ethyl 2-((4-(8-carbamoyl-6-fluoro-4H-benzo[4,5]imidazo[1,2-b]pyrazol-3-yl)-4-methylpiperidin-1-yl)methyl)cyclopropanecarboxylate]: the IC50 at PARP-1 lay within 1 to 100 nM. Also, the concentration giving a half-maximal response (EC50) with HCC1937 cells fell in the range of 1 to 100 nM.

In the case of `CN(C)C(=O)C1CC1CN1CCC(C)(c2cnn3c2[nH]c2cc(F)cc(C(N)=O)c23)CC1` (stereo not shown) [Example 81], at PARP-1, the IC50 is 1 to 100 nM. Also, the concentration giving a half-maximal response (EC50) with HCC1937 cells was 1 to 100 nM.

With `CC(C)CN1CCC(C)(c2cnn3c2[nH]c2cc(F)cc(C(N)=O)c23)CC1` [Example 82, 6-fluoro-3-(1-isobutyl-4-methylpiperidin-4-yl)-4H-benzo[4,5]imidazo[1,2-b]pyrazole-8-carboxamide], the IC50 on PARP-1 was in the range of 1 to 100 nM. Also, the EC50 with HCC1937 cells lay in the range of 1 to 100 nM.

On to `Cc1ncsc1CN1CCC(C)(c2cnn3c2[nH]c2cc(F)cc(C(N)=O)c23)CC1` [Example 83, 6-fluoro-3-(4-methyl-1-((4-methylthiazol-5-yl)methyl)piperidin-4-yl)-4H-benzo[4,5]imidazo[1,2-b]pyrazole-8-carboxamide], for which the IC50 on PARP-1 was in the range of 1 to 100 nM. Also, the EC50 with HCC1937 cells lay in the range of 1 to 100 nM.

Consider `Cn1ccnc1CN1CCC(C)(c2cnn3c2[nH]c2cc(F)cc(C(N)=O)c23)CC1` [Example 84, 6-fluoro-3-(4-methyl-1-((1-methyl-1H-imidazol-2-yl)methyl)piperidin-4-yl)-4H-benzo[4,5]imidazo[1,2-b]pyrazole-8-carboxamide], for which, on PARP-1, the IC50 was in the range of 1 to 100 nM. Besides, the EC50 in the assay with HCC1937 cells fell in the range of 1 to 100 nM.

Consider `Cc1ncc(CN2CCC(C)(c3cnn4c3[nH]c3cc(F)cc(C(N)=O)c34)CC2)n1C` [Example 85, 3-(1-((1,2-dimethyl-1H-imidazol-5-yl)methyl)-4-methylpiperidin-4-yl)-6-fluoro-4H-benzo[4,5]imidazo[1,2-b]pyrazole-8-carboxamide], for which the IC50 on PARP-1 was 1 to 100 nM. Besides, the EC50 in the assay with HCC1937 cells was 1 to 100 nM.

For the molecule `CCN1CCC(N2CCC(C)(c3cnn4c3[nH]c3cc(F)cc(C(N)=O)c34)CC2)CC1` [Example 86, 3-(1′-ethyl-4-methyl-[1,4′-bipiperidin]-4-yl)-6-fluoro-4H-benzo[4,5]imidazo[1,2-b]pyrazole-8-carboxamide], the IC50 on PARP-1 is 1 to 100 nM. In addition, in the assay with HCC1937 cells, the EC50 was 1 to 100 nM.

Regarding `CC1(c2cnn3c2[nH]c2cc(F)cc(C(N)=O)c23)CCN(Cc2ccc(=O)[nH]n2)CC1` [Example 87, 6-fluoro-3-(4-methyl-1-((6-oxo-1,6-dihydropyridazin-3-yl)methyl)piperidin-4-yl)-4H-benzo[4,5]imidazo[1,2-b]pyrazole-8-carboxamide], on PARP-1, the IC50 lay in the range of 1 to 100 nM. In addition, the EC50 with HCC1937 cells was 101 to 1000 nM.

Consider `CC1(c2cnn3c2[nH]c2cc(F)cc(C(N)=O)c23)CCN(CCC#N)CC1` [Example 88, 3-(1-(2-cyanoethyl)-4-methylpiperidin-4-yl)-6-fluoro-4H-benzo[4,5]imidazo[1,2-b]pyrazole-8-carboxamide], for which the IC50 at PARP-1 is 1 to 100 nM. In addition, the EC50 in the assay with HCC1937 cells was 1 to 100 nM.

In the case of `CCN1CCC(C)(c2cnn3c2[nH]c2cc(Cl)cc(C(N)=O)c23)CC1` [Example 89, 6-chloro-3-(1-ethyl-4-methylpiperidin-4-yl)-4H-benzo[4,5]imidazo[1,2-b]pyrazole-8-carboxamide], the IC50 at PARP-1 is 1 to 100 nM. In the assay with HCC1937 cells, the EC50 was in the range of 101 to 1000 nM.

On to `CCN1CCC(C)(c2cnn3c2[nH]c2cc(F)cc(C(N)=O)c23)C1` (stereo not shown) [Example 90, 3-(1-ethyl-3-methylpyrrolidin-3-yl)-6-fluoro-4H-benzo[4,5]imidazo[1,2-b]pyrazole-8-carboxamide], for which, on PARP-1, the IC50 lay in the range of 1 to 100 nM. Besides, in the assay with HCC1937 cells, the EC50 was 1 to 100 nM.
